Data reported in patent publication US7531713B2, “Assay for toxin induced neuronal degeneration and viability in C. elegans” (Vanderbilt University, priority 2001, dated 2009).
Entries after “also recorded” stand apart in the source; their conditions may differ.

Key:
CeDAT = biological target: T1, CeDAT (Caenorhabditis elegans, UniProt Q03614); details: mammalian cells expressing CeDAT, cited from earlier work; for Sensitivity of CeDAT-mediated DA transport to antagonists/substrates: potencies comparable to human DAT
T1 sequence (Q03614 1-615): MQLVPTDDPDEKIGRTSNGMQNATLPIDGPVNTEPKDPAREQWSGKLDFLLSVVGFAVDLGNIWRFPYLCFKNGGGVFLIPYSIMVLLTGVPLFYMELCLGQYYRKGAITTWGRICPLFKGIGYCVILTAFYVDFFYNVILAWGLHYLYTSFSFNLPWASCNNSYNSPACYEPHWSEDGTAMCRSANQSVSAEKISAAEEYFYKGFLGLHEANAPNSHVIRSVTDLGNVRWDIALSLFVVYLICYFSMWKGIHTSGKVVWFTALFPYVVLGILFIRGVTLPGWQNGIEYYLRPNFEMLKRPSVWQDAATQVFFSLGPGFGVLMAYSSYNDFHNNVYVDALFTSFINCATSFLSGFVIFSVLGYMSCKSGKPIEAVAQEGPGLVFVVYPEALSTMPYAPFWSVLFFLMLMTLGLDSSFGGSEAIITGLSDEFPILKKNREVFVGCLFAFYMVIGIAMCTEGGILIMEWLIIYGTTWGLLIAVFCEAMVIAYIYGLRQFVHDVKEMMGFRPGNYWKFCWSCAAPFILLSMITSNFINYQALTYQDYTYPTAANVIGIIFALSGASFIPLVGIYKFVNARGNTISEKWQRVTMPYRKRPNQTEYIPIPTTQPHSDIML

C. elegans DA neurons = experiment: 6-OHDA assay: GFP signal in DA neurons of Pdat-1::GFP transgenic worms; format: in vivo; details: for Protection against 6-OHDA toxicity (GFP signal in DA neurons): coincubated with 6-OHDA, 10 mM test substance
Description: Synchronized cultures of nematodes were prepared by collecting gravid worms from one or two 100 mm 8P/NA22 plates, washing them 2 times in approximately 10 mls dH2O (2,000 rpm for 2 min), and incubating them in alkaline hypochlorite for 7-10 min. essentially as described (Emmons et al., 1979; Epstein and Shakes, 1995). Following the 17-24 hour incubation in M9 to obtain the synchronized L1's, the worms were washed once in 10 mls dH2O, spread on 8P/NA22 plates and incubated at 24° C. for 25-29 hours. The L3 larvae were collected, washed once or twice in dH2O, and added to the assay mix (to a final OD600 worms of 0.1-0.2) containing 10 mM ascorbic acid containing 10 or 50 mM 6-hydroxydopamine +/−10 mM d-amphetamine or 1 mM imipramine. The assay mix (1-2 mls) was incubated for 1 hour at 24° C., and mixed gently every 15 min. The worms were then washed in 0.5-1 ml dH2O as above and spread on NGM/OP50 plates. The worms were examined and scored 40-80 hours post-6-OHDA exposure on 2% agarose pads, using 2% NaN3 to immobilize them. For electron microscopy, the worms are fixed approximately 60 hours following exposure to 6-OHDA.
Scoring of the CEPs were performed by applying approximately 50-60 worms on the agar pad, and examined under a Zeiss M2 fluorescent dissecting scope. All 4 CEP dendrites were examined in each worm and the GFP fluorescence within the dendrites followed from the nerve ring to the tip of the nose. If any part of the dendrite was absent, the worm was considered to have altered CEPs. The DA neurons were examined in living animals using a Zeiss Axioskop with a planApo 40 and 63× objective and a Zeiss LSM410 confocal laser-scanning microscope.
Briefly, the worms are exposed to the neurotoxin (or any other candidate substance) dissolved in a liquid suspension prior to being replated on a solid plate.
Exposure to toxins is carried out by transferring the worms to a solution of water containing 10 mM Ascorbic Acid and 10-50 mM 6OHDA in a final volume of 600 μl. The worms are incubated for 1 hour at 22-24° C. with mixing in silica coated tubes. The exposing is stopped by dilution with 1 ml of water. The tube is then pulsed at 2000 rpm for 2 minutes, resuspended in water and the worms are spread on N6M plates ([…]) coated with OP50 E. coli, which the worms feed on.

ASI chemosensory neurons = experiment: 6-OHDA exposure of ASI chemosensory neurons with or without transferred DAT-1; format: in vivo, C. elegans
From the text: FIGS. 6A, 6B, 6C & 6D. Transfer of the DAT gene product sensitizes non-DA neurons to 6-OHDA. (FIG. 6A), ASI chemosensory neurons made transgenic for a PDAF-7::GFP reporter to reveal these cells and their processes. (FIG. 6B), Worms in FIG. 6A treated with 6-OHDA. […] (FIG. 6C), A transgenic line where PDAF7::DAT1:GFP translational fusion is expressed in the ASI neurons, brining DAT-protein to these cells. (FIG. 6D), Animals in C, exposed to 6-OHDA.

Question: With `C[C@H](N)Cc1ccccc1` [amphetamine, d-amphetamine] as the compound, how does the “Sensitivity of CeDAT-mediated DA transport to antagonists/substrates” value (from here on “Sensitivity … to antagonists/substrates”) (CeDAT) read?
Answer: Its value is “sensitive”.

Question: And the “Protection against 6-OHDA toxicity (GFP signal in DA neurons)” value (C. elegans DA neurons)?
Answer: Its value is “prevents visible evidence of 6-OHDA toxicity”.

Question: With `CNCCC(Oc1ccccc1OC)c1ccccc1` (stereo not shown) [nisoxetine] as the compound, how does the “Sensitivity … to antagonists/substrates” value (CeDAT) read?
Answer: Its value is “inhibited”.

Question: Which “Sensitivity … to antagonists/substrates” value (CeDAT) does the source give for `CN(C)CCCN1c2ccccc2CCc2ccccc21` [imipramine] here?
Answer: Its value is “inhibited”.

Question: What about the “Protection against 6-OHDA toxicity (GFP signal in DA neurons)” value (C. elegans DA neurons) of the same compound?
Answer: The value was “prevents visible evidence of 6-OHDA toxicity”.

Question: With `NCCc1ccc(O)c(O)c1` [DA, Dopamine] as the compound, how does the Km (CeDAT; read-out: Km of Na+- and Cl--dependent DA transport) read?
Answer: The Km was 1.2 µM.

Question: Which “Effect of 6-OHDA on ASI neurons expressing DAT-1” value (ASI chemosensory neurons; PDAF7::DAT1:GFP translational fusion line (FIG. 6D)) does the source give for `NCCc1cc(O)c(O)cc1O` [6-OHDA, 6-hydroxydopamine] here?
Answer: Its value is “conferred 6-OHDA sensitivity”.

Question: And the “Effect of 6-OHDA on ASI neurons lacking DAT-1” value (ASI chemosensory neurons; PDAF-7::GFP reporter line (FIG. 6B))?
Answer: The value was “little or no effect”.

Question: What about the “Effect of 6-OHDA on GFP signal in DA neurons” value (C. elegans DA neurons; 10 mM 6-OHDA for 1 hr, visualized 72 hrs later via confocal microscopy) of the same compound?
Answer: Its value is “various stages of apparent degeneration are evident”.

Question: What about the “Effect of 6-OHDA on DA neurons / reporter expression” value (C. elegans DA neurons; 10-50 mM 6-OHDA, 1 hour exposure, general statements) of the same compound?
Answer: Its value is “selectively degraded; also recorded: loss of reporter expression”.

Question: And the “Neuronal sensitivity to 6-OHDA as a function of time of exposure, dat-1 deletion strain” value (C. elegans DA neurons; dat-1 mutant line (FIG. 5E))?
Answer: The value was “protected”.

Question: And the “Effect of 6-OHDA on GFP signal in dat-1 deleted strain” value (C. elegans DA neurons; reporter transgenic line produced in a dat-1 deleted strain (FIG. 5D))?
Answer: Its value is “failure of toxin to effect loss of GFP signal”.

Question: What about the “Neuronal sensitivity to 6-OHDA as a function of time of exposure” value (C. elegans DA neurons; wildtype reporter line, CEP neurons (FIG. 5E)) of the same compound?
Answer: The value was “time dependent loss of CEP neurons”.
